Structures are written as SMILES. pIC50: −log10 of the molar value.

In the test the target is T1, human PAD4 (Homo sapiens, UniProt Q9UM07).
T1 construct: human PAD4 (NM_012387), A2-P663, was PCR amplified; His-SUMO (N, cleaved yes); made in house; host or cells: E. coli BL21(DE3)
T1 sequence (Q9UM07 2-663): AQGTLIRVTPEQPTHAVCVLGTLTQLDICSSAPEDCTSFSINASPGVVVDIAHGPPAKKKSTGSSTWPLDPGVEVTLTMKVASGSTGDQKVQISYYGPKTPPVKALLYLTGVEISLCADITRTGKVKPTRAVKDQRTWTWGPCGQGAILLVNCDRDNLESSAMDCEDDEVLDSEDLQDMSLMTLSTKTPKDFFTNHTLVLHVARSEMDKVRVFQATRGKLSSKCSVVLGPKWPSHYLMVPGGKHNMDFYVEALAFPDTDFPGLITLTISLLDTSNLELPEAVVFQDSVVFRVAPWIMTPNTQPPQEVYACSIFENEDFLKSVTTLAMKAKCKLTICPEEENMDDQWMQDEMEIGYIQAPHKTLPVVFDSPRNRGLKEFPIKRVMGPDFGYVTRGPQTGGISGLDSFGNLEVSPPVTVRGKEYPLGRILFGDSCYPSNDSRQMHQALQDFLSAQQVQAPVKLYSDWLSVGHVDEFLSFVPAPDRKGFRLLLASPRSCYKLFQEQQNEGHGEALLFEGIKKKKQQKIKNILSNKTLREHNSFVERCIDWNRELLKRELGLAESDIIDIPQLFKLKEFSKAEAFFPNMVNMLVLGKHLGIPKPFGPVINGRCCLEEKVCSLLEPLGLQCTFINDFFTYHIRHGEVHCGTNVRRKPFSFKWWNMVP
The test is described as follows: In vitro PAD4 BAEE biochemical assay. The note with it: BAEE substrate 3 mM, 5 nM PAD4, 2 mM calcium chloride; geometric mean of multiple experiments. The procedure, abridged: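 Recombinant PAD4 (5 nM final) with 2 mM CaCl2 was preincubated with compound for 30 min at 25 °C in MOPS pH 7.6 buffer with DTT, then reacted with 3 mM BAEE for 2 h at 25 °C. Released ammonia was detected fluorimetrically with o-phthalaldehyde/DTT; IC50 from four-parameter fit, geometric mean of experiments.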
As to `COc1cc(C(=O)N2CC[C@@H](OC)[C@@H](N)C2)cc2nc(-c3cc4ccc5nc4n3CCCCCCC(C)(C)C(=O)NC5C3CC3)n(C)c12` (stereo partly drawn) [Example 778, 17-[5-[(3~{S),4~{R})-3-amino-4-methoxy-piperidine-1-carbonyl]-7-methoxy-1-methyl-benzimidazol-2-yl]-11-cyclopropyl-8,8-dimethyl-1,10,19-triazatricyclo [10.5.2.0^{15,18}]nonadeca-12,14,16,18-tetraen-9-one], the pIC50 (as a rule, −log10 of the IC50, conventionally taken in molar units) is 6.47.
In the case of `CCC1NC(=O)C(C)(C)CCCCCCn2c(-c3nc4cc(C(=O)N5CC[C@@H](OC)[C@@H](N)C5)cc(OC)c4n3C)cc3ccc1nc32` (stereo partly drawn) [Example 779, 17-[5-[(3~{S),4~{R})-3-amino-4-methoxy-piperidine-1-carbonyl]-7-methoxy-1-methyl-benzimidazol-2-yl]-11-ethyl-8,8-dimethyl-1,10,19-triazatricyclo[10.5.2.0^ {15,18}]nonadeca-12,14,16,18-tetraen-9-one] it was 6.47.
Under `COc1cc(C(=O)N2CC[C@@H](OC)[C@@H](N)C2)cc2nc(-c3cc4ccc5nc4n3CCCCCc3ccc(Cl)nc3C(=O)N[C@@H]5C)n(C)c12` [Example 780, (2~{R})-17-[5-[(3~{S},4~{R})-3-amino-4-methoxy-piperidine-1-carbonyl]-7-methoxy-1-methyl-benzimidazol-2-yl]-7-chloro-2-methyl-3,6,16,22-tetrazatetracyclo[14.5.2.0^ {5,10).0^{19,23}]tricosa-1(21),5(10),6,8,17,19,22-heptaen-4-one] stands 7.28; under `COc1cc(C(=O)N2CC[C@@H](OC)[C@@H](N)C2)cc2nc(-c3cc4ccc5nc4n3CCC/C=C/c3ccc(Cl)nc3C(=O)N[C@@H]5C)n(C)c12` [Example 781, (2~{R},11~{E})-17-[5-[(3~ {S},4~{R})-3-amino-4-methoxy-piperidine-1-carbonyl]-7-methoxy-1-methyl-benzimidazol-2-yl]-7-chloro-2-methyl-3,6,16,22-tetrazatetracyclo[14.5.2.0^ {5,10}.0^{19,23}]tricosa-1(21),5(10),6,8,11,17,19,22-octaen-4-one], 7.14.
`COc1cc(C(=O)N2CC[C@@H](OC)[C@@H](N)C2)cc2nc(-c3cc4ccc5nc4n3CCCCC[C@@H]3C[C@H]3C(=O)NC5(C)C)n(C)c12` [Example 782, (5˜{R},7˜{R})-14-[5-[(3˜{S},4˜{R})-3-amino-4-methoxy-piperidine-1-carbonyl]-7-methoxy-1-methyl-benzimidazol-2-yl]-2,2-dimethyl-3,13,19-triazatetracyclo[11.5.2.0^{5,7}.0^{16,20}]icosa-1(18),14,16,19-tetraen-4-one]: the pIC50 was 7.20.
In the case of `COc1cc(C(=O)N2CC[C@@H](OC)[C@@H](N)C2)cc2nc(-c3cc4ccc5nc4n3CCCCCc3cc(Cl)cnc3C(=O)N[C@@H]5C)n(C)c12` [Example 783, (2~{R})-17-[5-[(3~{S},4~{R})-3-amino-4-methoxy-piperidine-1-carbonyl]-7-methoxy-1-methyl-benzimidazol-2-yl]-8-chloro-2-methyl-3,6,16,22-tetrazatetracyclo[14.5.2.0^ {5,10}.0^{19,23}] tricosa-1(21),5(10),6,8,17,19, 22-heptaen-4-one] it was 6.96; in that of `COc1cc(C(=O)N2CC[C@@H](OC(F)F)[C@@H](N)C2)cc2nc(-c3cc4ccc5nc4n3CCCCCc3ccc(Cl)nc3C(=O)N[C@@H]5C)n(C)c12` [Example 784, (2~{R})-17-[5-[(3~{S},4~{R})-3-amino-4-(difluoromethoxy)piperidine-1-carbonyl]-7-methoxy-1-methyl-benzimidazol-2-yl]-7-chloro-2-methyl-3,6,16,22-tetrazatetracyclo[14.5.2.0^ {5,10}.0^{19,23}]tricosa-1(21),5(10),6,8,17,19,22-heptaen-4-one], 7.01; in that of `COc1cc(C(=O)N2CC[C@@H](OC)[C@@H](N)C2)cc2nc(-c3cc4ccc5nc4n3CCCCCCC(C)(C)C(=O)NC5C(F)(F)F)n(C)c12` (stereo partly drawn) [Example 785, 17-[5-[(3~{S},4~{R})-3-amino-4-methoxy-piperidine-1-carbonyl]-7-methoxy-1-methyl-benzimidazol-2-yl]-8,8-dimethyl-11-(trifluoromethyl)-1,10,19-triazatricyclo [10.5.2.0^{15,18}]nonadeca-12,14,16,18-tetraen-9-one], 6.02.
In the case of `COc1cc(C(=O)N2C[C@H](N)C[C@H](O)[C@@H]2C)cc2nc(-c3cc4ccc5nc4n3CCCCCCC(C)(C)C(=O)N[C@@H]5C)n(C)c12` [Example 786, (11~{R})-17-[5-[(2~{S},3~ {S},5~{R})-5-amino-3-hydroxy-2-methyl-piperidine-1-carbonyl]-7-methoxy-1-methyl-benzimidazol-2-yl]-8,8,11-trimethyl-1,10,19-triazatricyclo[10.5.2.0^ {15,18}]nonadeca-12,14,16,18-tetraen-9-one] it was 6.63; in that of `COc1cc(C(=O)N2CC[C@@H](OC)[C@@H](N)C2)cc2nc(-c3cc4ccc5nc4n3CCCCC[C@@H]3C[C@H]3C(=O)NC53CC3)n(C)c12` [Example 787, (5~{R},7~{R})-14-[5-[(3~{S}, 4~{R})-3-amino-4-methoxy-piperidine-1-carbonyl]-7-methoxy-1-methyl-benzimidazol-2-yl]spiro[3,13,19-triazatetracyclo[11.5.2.0^ {5,7}.0^{16,20}]icosa-1(18),14,16,19-tetraene-2,1′-cyclopropane]-4-one], 7.03; in that of `COc1cc(C(=O)N2CC[C@@H](OC)[C@@H](N)C2)cc2nc(-c3cc4ccc5nc4n3CCCCCc3nc4ccsc4cc3C(=O)N[C@@H]5C)n(C)c12` [Example 788, (2~{R})-20-[5-[(3~{S),4~{R})-3-amino-4-methoxy-piperidine-1-carbonyl]-7-methoxy-1-methyl-benzimidazol-2-yl]-2-methyl-8-thia-3,12,19,25-tetrazapentacyclo[17.5.2.0^ {5,13).0^{7,11}.0^{22,26}] hexacosa-1(24),5(13), 6,9,11,20,22,25-octaen-4-one], 7.46.
Under `CO[C@@H]1CCN(C(=O)c2cc(F)c3c(c2)nc(-c2cc4ccc5nc4n2CCCCCc2nc(Cl)ccc2C(=O)N[C@@H]5C)n3C2CC2)C[C@@H]1N` [Example 789, (2~{R})-17-[5-[(3~{S},4~{R})-3-amino-4-methoxy-piperidine-1-carbonyl]-1-cyclopropyl-7-fluoro-benzimidazol-2-yl]-8-chloro-2-methyl-3,9,16,22-tetrazatetracyclo[14.5.2.0^ {5,10}.0^{19,23}]tricosa-1(21),5(10),6,8,17,19,22-heptaen-4-one] stands 7.66.
Turning to `C[C@@H]1[C@H](N)CCCN1C(=O)c1cc(F)c2c(c1)nc(-c1cc3ccc4nc3n1CCCCCc1nc(Cl)ccc1C(=O)N[C@@H]4C)n2C1CC1` [Example 790, (2~{R})-17-[5-[(2~{R},3~{R})-3-amino-2-methyl-piperidine-1-carbonyl]-1-cyclopropyl-7-fluoro-benzimidazol-2-yl]-8-chloro-2-methyl-3,9,16,22-tetrazatetracyclo[14.5.2.0^ {5,10}.0^{19,23}]tricosa-1(21),5(10),6,8,17,19,22-heptaen-4-one], the pIC50 was 7.64.
In the case of `C[C@H]1NC(=O)c2ccc(Cl)nc2CCCCCn2c(-c3nc4cc(C(=O)N5C[C@H](N)C[C@@H](F)C5)cc(F)c4n3C3CC3)cc3ccc1nc32` [Example 791, (2~{R})-17-[5-[(3~{R},5~{R})-3-amino-5-fluoro-piperidine-1-carbonyl]-1-cyclopropyl-7-fluoro-benzimidazol-2-yl]-8-chloro-2-methyl-3,9,16,22-tetrazatetracyclo[14.5.2.0^ {5,10}.0^{19,23}]tricosa-1(21),5(10),6,8,17,19,22-heptaen-4-one], the pIC50 is 7.77.
In the case of `COc1cc(C(=O)N2C[C@H](N)C[C@@H](F)[C@@H]2C)cc2nc(-c3cc4ccc5nc4n3CC(F)(F)CCCC3C[C@H]3C(=O)N[C@@H]5C)n(C)c12` (stereo partly drawn) [Example 792, (2~{R},5~{R),7~{R})-14-[5-[(2~{S),3~{R},5~{R})-5-amino-3-fluoro-2-methyl-piperidine-1-carbonyl]-7-methoxy-1-methyl-benzimidazol-2-yl]-11,11-difluoro-2-methyl-3,13,19-triazatetracyclo [11.5.2.0^{5,7}.0^{16,20}] icosa-1(18),14,16,19-tetraen-4-one] it was 6.47.
Under `COc1cc(C(=O)N2CCC[C@@H](N)[C@H]2C)cc2nc(-c3cc4ccc5nc4n3CCCCCc3nc4ccsc4cc3C(=O)N[C@@H]5C)n(C)c12` [Example 793, (2~{R})-20-[5-[(2~{R},3~{R})-3-amino-2-methyl-piperidine-1-carbonyl]-7-methoxy-1-methyl-benzimidazol-2-yl]-2-methyl-8-thia-3,12,19,25-tetrazapentacyclo[17.5.2.0^ {5,13}.0^{7,11}.0^{22,26}] hexacosa-1(24),5(13),6,9, 11,20,22,25-octaen-4-one] stands 7.62.
In the case of `COc1cc(C(=O)N2C[C@H](N)C[C@@H](F)C2)cc2nc(-c3cc4ccc5nc4n3CCCCCc3nc4ccsc4cc3C(=O)N[C@@H]5C)n(C)c12` [Example 794, (2~{R})-20-[5-[(3~{R},5~{R})-3-amino-5-fluoro-piperidine-1-carbonyl]-7-methoxy-1-methyl-benzimidazol-2-yl]-2-methyl-8-thia-3,12,19,25-tetrazapentacyclo[17.5.2.0^ {5,13}.0^{7,11).0^{22,26}] hexacosa-1(24),5(13), 6,9,11,20,22,25-octaen-4-one] it was 7.74; in that of `COc1cc(C(=O)N2C[C@H](N)C[C@@H](F)[C@@H]2C)cc2nc(-c3cc4ccc5nc4n3CCCCCCC(C)(C)C(=O)N[C@@H]5C)n(C)c12` [Example 795, (11~{R})-17-[5-[(2~{S),3~{R},5~ {R})-5-amino-3-fluoro-2-methyl-piperidine-1-carbonyl]-7-methoxy-1-methyl-benzimidazol-2-yl]-8,8,11-trimethyl-1,10,19-triazatricyclo[10.5.2.0^ {15,18}]nonadeca-12,14,16,18-tetraen-9-one], 6.18.
